For data set [1], the system named is Candida albicans. Nature of the data set: microbe, parasite or virus in culture.
The test system of data set [2] is CV-1 cells.
The conditions of data set [3]: as described in British patent specification Nos. 1,078,049 and 932,875; cited from earlier work.

The values that follow come from patent US4801606A (priority 1987, dated 1989).

Values after ≈ are worked out from the molar mass of the structure shown. Where two headings read alike, the source gives them in different places.

As to `C=C1CC(OC)(C(O)C(=O)NC2OCOC3C2OC(CC(O)CCC/C=C/C=C/C=C/C(=O)NC(CCCNC(=N)N)C(=O)OC)C(C)(C)C3OC)OC(C)C1C` (stereo not shown) [Methyl ester (2), Methyl ester of onnamide A], in data set [1], the MIC was found to be 5 µg/mL (≈ 6.19 µM).
On to `C=C1CC(OC)(C(O)C(=O)NC2OCOC3C2OC(CC(O)CCC/C=C/C=C/C=C/C(=O)NC(CCCNC(=N)N)C(=O)O)C(C)(C)C3OC)OC(C)C1C` (stereo not shown) [Onnamide A (1), onnamide A], for which the “VSV CYT” value in data set [2] (0.2 ug/well), in data set [2] (2 ug/well) and in data set [2] (20 ug/well) was 0 LS in each case. Moreover, the MIC in data set [1] was 50 µg/mL (≈ 63 µM).
Consider `C=C1CC(OC)(C(O)C(=O)NC(OC)C2CC(O)C(C)(C)C(CC(COC)OC)O2)OC(C)C1C` (stereo not shown) [Pederin], for which the antimitotic activity entry in data set [3] is “antimitotic activity”.
Molecule `C=C1CC(OC)(C(O)C(=O)NC2OCOC3C2OC(CC(O)CCC/C=C/C=C/C=C/C(=O)NC(CCCNc2nc(C)cc(C)n2)C(=O)O)C(C)(C)C3OC)OC(C)C1C` (stereo not shown) [Pyrimidine derivative (3)] registered an MIC in data set [1] of 50 µg/mL (≈ 58.3 µM).
